What was measured:
CHO‐K1 cells = assay: Cellular viability, resazurin assay; assay type: cell-based, Chinese hamster; conditions: CHO-K1, up to 10 µM carrier, 24 h, n = 3
Protocol: For cell viability assay in thepresence of activators, CHO‐K1 cells were incubated in Ham's F‐12 medium containing 10% fetal bovine serum and 1.0% penicillin streptomycin at 37 °C in a 5% CO2 for 24 h. CHO‐K1 cells were dispersed in a 96‐well flat bottom tissue culture treated plates (Eppendorf) at density of 5 × 10^3 cells per well (per 100 µL) and incubated in Ham's F‐12 containing 10% v/v fetal bovine serum at 37 °C in a 5% CO2 incubator for 12 h to allow cell adhesion. Then, cells were incubated with POM, B12Br12 ^2−, or PyBu (10, 50, and 100 µM) for another 24 h. After this incubation time, 20 µL resazurin solution (0.15 mg mL^−1) was added to cells and incubated for another 3 h. Finally, the plates were read at λ em = 590 nm (λ ex = 560 nm) using a JASCO fluorometer FP‐8500. The cell viability was evaluated by the following equation (4) Cellviability=FIsample−FIblank/FIcontrol−FIblank×100% where, FI sample is the fluorescence intensity of cells incubated with different compounds, FI blank is the fluorescence intensity of medium, and FI control is the fluorescence intensity of cells in absence of any compound.
6. Transport in cellular membranes
Figure S13. Viability of CHO-K1cells (resazurin assay) incubated with different carrier concentrations (0, 10, 50, and 100 µM) for 24 hours. Error bars refer to standard deviation (n = 3).
Figure S14. […]

[1] = U-tube transport experiment through CHCl3; conditions: CHCl3 bulk phase; CF 100, POM 50, heptaArg 10 µM; 24 h; fluorescence
From the text: In the U‐tube experiments, the trans phase contained only buffer, and the cis phase is loaded with combinations of CF, carrier (POM), and cargo (heptaArg). Aliquots of the trans phase are taken and evaluated by fluorescence at different times. The trans phase is initially (t = 0) nonfluorescent, but the transport of CF from the cis phase through the chloroform barrier leads to fluorescence, signaling successful transport. […] This is consistent with translocation of a POM•heptaArg•CF complex through the organic phase, in support of the mechanism in Figure 1c.
The U‐tubes were house‐made, similar to those of Rebek^[ [82] ^] and Matile,^[ [54] ^] consisting in a small beaker with a central glass barrier, separating the two aqueous layers, cis ([…]) and trans (receiving phase), but allowing an interface chloroform layer below the cis and trans phases. 3 mL CHCl3 are placed into the U‐tube and 1 mL of the cis (combinations of carrier (POM), cargo (heptaArg) and CF in buffer) and trans (1 mL buffer) phases were added. The organic phase was stirred at 700 rpm at room temperature. Aliquots (25 µL) from the trans phase were taken at different times, 400 µL of buffer were added and measured by fluorescence.

heptaarginine = assay: ITC, POM into heptaarginine; assay type: binding; conditions: 10 mM Tris; for Ka/ 107, heptaarginine: pH 7.4, 298.15 K, value is Ka divided by 10^7, duplicates; for Ka, heptaarginine (Figure 2c,d): pH 7.4, POM/oligoarginine 100/8 and 200/10 µM
Protocol: All experiments were performed with a VP‐ITC MicroCalorimeter from MicroCal, Int,. at atmospheric pressure and 298.15 K. Solutions were degassed and thermostatic prior to the titration experiments in a ThermoVac accessory. A constant volume of POM ([PVW11]^4‒ or [SiMoW11]^4‒) (10 µL per injection) was injected into the oligopeptide solution (heptaArg, protamine, polyArg or heptaLys) in 10 mM Tris, pH 7.4 to determine the apparent binding affinity of [PVW11]^4‒ and [SiMoW11]^4‒ with the oligopeptides. Dilution heats were determined by titration of the POM into buffer and subtracted from the reaction heat. The neat reaction heat was fitted with Origin 7.0 software by using the “one‐set‐of‐sites” model to obtain the complex stability constant (K a) and molar reaction enthalpy (∆H°). The free energy (∆G°) and entropy changes (∆S°) were obtained according to the relation: ∆G° = −RTlnK a = ∆H°−T∆S°.
4. Supramolecular interactions
Figure S10. Microcalorimetric titrations in 10 mM Tris, pH 7.4: Raw ITC data (top) for the sequential injections of POM solution into an oligoarginine solution, and apparent reaction heats (bottom) obtained from the integration of the calorimetric traces. […]
values and ± 0.5 kcal mol‒1 for ΔH and TΔS (duplicate measurements). Note that none of these interactions lead to any precipitation or aggregates, confirmed by the absence of any detectable signal by DLS. […]
Figure S11. Microcalorimetric titrations in 10 mM Tris, pH 7.4: Raw ITC data (top) for the sequential injections of POM solution into a heptalysine solution, and apparent reaction heats (bottom) obtained from the integration of the calorimetric traces. POM/heptalysine concentrations in µM: a, 200/8 and b, 150/10. Error data is 5% for the n values and ± 0.5 kcal mol‒1 for ΔH and TΔS (duplicate […]
Table S6. Binding constants (Ka in M‒1) and thermodinamic data (in kcal mol‒1) measured for the complex formation between the stable and active POMs and oligoarginines in 10 mM Tris, pH 7.4. a) […]
a) Error data is 5% for the n values and ± 0.5 kcal mol‒1 for ΔH and TΔS (duplicate measurements).

Substance | Cell viability (CHO‐K1 cells) | Carrier behaviour in U-tube (CF in trans phase) [1] | Ka/ 107, heptaarginine (heptaarginine) [M‒1] | Ka, heptaarginine (Figure 2c,d) (heptaarginine) [M⁻¹]
K4[α‐P^VV^VW^VI 11O40]·4H2O [[PVW11]^4‒] | about 80% | act as “real” carriers | 5.7 | 5.7e+07
K4[α‐Si^IVMo^VIW^VI 11O40]·24H2O [[SiMoW11]^4‒] | about 80% | act as “real” carriers | 0.6 | 6.3e+06

From paper PMC11475408, “All‐Inorganic Polyoxometalates Act as Superchaotropic Membrane Carriers” (Advanced Materials (Deerfield Beach, Fla.), 2023)
